From patent US20100222217A1, “Fungicidal N-[2-(Haloalkoxy)Phenyl]Heteroarylcarboxamides” (priority 2005, published 2010)

Test system: Erysiphe [syn. Blumeria] graminis forma specialis. tritici
Assay: Activity against mildew of wheat caused by Erysiphe [syn. Blumeria] graminis forma specialis. tritici
Assay type: in vivo
Settings: 63 ppm, wheat seedlings, protective spray, assessed after 7 days; untreated plants 90% infected
Procedure: The active compounds were separately or jointly prepared as a stock solution comprising 25 mg of active compound which was made up to 10 ml using a mixture of acetone and/or dimethylsulfoxide and the emulsifier Uniperol® EL (wetting agent having emulsifying and dispersing action based on ethoxylated alkylphenols) in a volume ratio of solvent/emulsifier of 99 to 1. The mixture was then made up with water to 100 ml. This stock solution was diluted with the solvent/emulsifier/water mixture described to the desired concentration of active compounds. Leaves of potted wheat seedlings were sprayed to runoff point with an aqueous suspension having the active compound concentration stated below. The suspension was prepared as described above. 24 hours after the spray coating had dried on, the plants were dusted with spores of mildew of wheat (Erysiphe [syn. Blumeria] graminis forma specialis. tritici). The test plants were then placed in a greenhouse at temperatures between 20 and 24° C. and at 60 to 90% relative atmospheric humidity. After 7 days, the extent of the mildew development was determined visually in % infection of the entire leaf area.

With `Cn1cc(C(=O)Nc2ccccc2OC(F)(F)C(F)F)c(C(F)(F)F)n1` [N-[2-(1,1,2,2-tetrafluoroethoxy)phenyl]-3-trifluormethyl-1-methylpyrazol-4-yl-carboxamide] as the compound, how does the infection read?
Its infection is 70%.

Same assay, conditions: 250 ppm, wheat seedlings, protective spray, assessed after 7 days; untreated plants 80% infected

Which infection does the source give for `Cn1cc(C(=O)Nc2ccccc2OC(F)(F)C(F)F)c(C(F)(F)F)n1` [N-[2-(1,1,2,2-tetrafluoroethoxy)phenyl]-3-trifluormethyl-1-methylpyrazol-4-yl-carboxamide] here?
Its infection is 40%.

Test system: Alternaria solani
Assay: Activity against early blight on tomatoes caused by Alternaria solani
Assay type: in vivo
Settings: 250 ppm, tomato plants, protective spray, assessed after 5 days; untreated plants 90% infected
Procedure: The active compounds were separately or jointly prepared as a stock solution comprising 25 mg of active compound which was made up to 10 ml using a mixture of acetone and/or dimethylsulfoxide and the emulsifier Uniperol® EL (wetting agent having emulsifying and dispersing action based on ethoxylated alkylphenols) in a volume ratio of solvent/emulsifier of 99 to 1. The mixture was then made up with water to 100 ml. This stock solution was diluted with the solvent/emulsifier/water mixture described to the desired concentration of active compounds.
Leaves of potted tomato plants of the cultivar “Goldene Königin” were sprayed to runoff point with an aqueous suspension having the concentration of active compounds stated below. The next day, the leaves were infected with an aqueous spore suspension of Alternaria solani in a 2% biomalt solution having a density of 0.17×10^6 spores/ml. The plants were then placed in a water vapor-saturated chamber at temperatures between 20 and 22° C. After 5 days, the disease on the untreated, but infected control plants had developed to such an extent that the infection could be determined visually in %.

With `Cc1nn(C)cc1C(=O)Nc1ccccc1OC(F)(F)C(F)F` [N-[2-(1,1,2,2-tetrafluoroethoxy)phenyl]-1,3-dimethylpyrazol-4-yl-carboxamide] as the compound, how does the infection read?
The infection was 60%.

Test system: not given
Assay: not given
Settings: not given

With `Cn1cc(C(=O)Nc2ccccc2OC(F)(F)C(F)C(F)(F)F)c(C(F)(F)F)n1` (stereo not drawn) [Compound I-1, N-[2-(1,1,2,3,3,3-Hexafluoropropoxy)phenyl]-1-methyl-3-trifluoromethyl-1H-pyrazole-4-carboxamide] as the compound, how does the melting point read?
Its melting point is 91 to 93 °C.

For `Cn1cc(C(=O)Nc2ccccc2OC(F)(F)C(F)Cl)c(C(F)(F)F)n1` (stereo not drawn) [Compound I-3, N-[2-(2-Chloro-1,1,2-trifluoroethoxy)phenyl]-1-methyl-3-trifluoromethyl-1H-pyrazole-4-carboxamide], which melting point is on record?
Its melting point is 94 to 95 °C.

For `Cn1cc(C(=O)Nc2ccccc2OC(F)(F)C(F)Cl)c(C(F)F)n1` (stereo not drawn) [Compound I-4, N-[2-(2-chloro-1,1,2-trifluoroethoxy)phenyl]-3-difluoromethyl-1-methyl-1H-pyrazole-4-carboxamide], which melting point is on record?
The melting point was 110 to 111 °C.

For `Cn1cc(C(=O)Nc2ccccc2OC(F)(F)C(F)F)c(C(F)F)n1` [Compound I-5, N-[2-(1,1,2,2-tetrafluoroethoxy)phenyl]-3-difluoromethyl-1-methyl-1H-pyrazole-4-carboxamide], which melting point is on record?
Its melting point is 117 to 119 °C.

Which melting point does the source give for `Cc1nc(C(F)(F)F)c(C(=O)Nc2ccccc2OC(F)(F)C(F)F)s1` [Compound I-6, N-[2-(1,1,2,2-tetrafluoroethoxy)phenyl]-2-methyl-4-trifluoromethylthiazol-5-yl-carboxamide] here?
The melting point was 118 to 120 °C.

With `Cc1nc(C)c(C(=O)Nc2ccccc2OC(F)(F)C(F)F)s1` [Compound I-7, N-[2-(1,1,2,2-tetrafluoroethoxy)phenyl]-2,4-dimethylthiazol-5-ylcarboxamide] as the compound, how does the melting point read?
Its melting point is 134 to 135 °C.

With `Cc1nc(C(F)(F)F)c(C(=O)Nc2ccccc2OC(F)(F)C(F)C(F)(F)F)s1` (stereo not drawn) [Compound I-8, N-[2-(1,1,2,3,3,3-hexafluoropropoxy)phenyl]-2-methyl-4-trifluoromethylthiazole-5-carboxamide] as the compound, how does the melting point read?
Its melting point is 70 to 71 °C.

Which melting point does the source give for `Cc1nc(C(F)(F)F)c(C(=O)Nc2ccccc2OC(F)(F)C(F)Cl)s1` (stereo not drawn) [Compound I-9, N-[2-(2-chloro-1,1,2-trifluoroethoxy)phenyl]-2-methyl-4-trifluoromethylthiazole-5-carboxamide] here?
The melting point was 80 to 81 °C.

With `Cc1nc(C(F)F)c(C(=O)Nc2ccccc2OC(F)(F)C(F)C(F)(F)F)s1` (stereo not drawn) [Compound I-11, N-[2-(1,1,2,3,3,3-hexafluoropropoxy)phenyl]-4-difluoromethyl-2-methylthiazole-5-carboxamide] as the compound, how does the melting point read?
The melting point was 89 to 92 °C.

Which melting point does the source give for `O=C(Nc1ccccc1OC(F)(F)C(F)F)c1cccnc1Cl` [Compound I-12, N-[2-(1,1,2,2-tetrafluoroethoxy)phenyl]-2-chloronicotinamide] here?
The melting point was 126 to 128 °C.

Which melting point does the source give for `O=C(Nc1ccccc1OC(F)(F)C(F)C(F)(F)F)c1cccnc1Cl` (stereo not drawn) [Compound I-13, N-[2-(1,1,2,3,3,3-hexafluoropropoxy)phenyl]-2-chloronicotinamide] here?
Its melting point is 85 to 91 °C.

With `O=C(Nc1ccccc1OC(F)(F)C(F)Cl)c1cccnc1Cl` (stereo not drawn) [Compound I-14, N-[2-(2-chloro-1,1,2-trifluoroethoxy)phenyl]-2-chloronicotinamide] as the compound, how does the melting point read?
Its melting point is 73 to 76 °C.
